Measurements from PMC5053523, “In Vitro Antibacterial Activity of Rhodanine Derivatives against Pathogenic Clinical Isolates” (PLoS ONE, 2016).
Converted amounts (≈) assume the structure as drawn. Like-named read-outs stand apart in the source and are kept apart here.

What was measured:
Escherichia coli O157:H7 [1] = test: MIC with/without sub-MIC colistin, Escherichia coli O157:H7; type: cell-based
In short: (§1)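 Compounds plus sub-inhibitory colistin or PMBN; MIC against Gram-negatives, with control antibiotics in parallel.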

Escherichia coli O157:H7 [2] = test: MIC with/without PMBN, Escherichia coli O157:H7; type: cell-based
In short: as §1

P. aeruginosa = test: Broth microdilution MIC, P. aeruginosa; type: cell-based; conditions: Pseudomonas aeruginosa
Pseudomonas aeruginosa [3] = test: MIC with/without sub-MIC colistin, Pseudomonas aeruginosa; type: cell-based
In short: as §1

Escherichia coli Δ acrAB = test: MIC against E. coli 1411 and AcrAB efflux pump deficient E. coli SM1411Δ acrAB; type: cell-based
In short: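 Gram-negative MICs were determined for rhodanines alongside control antibiotics, each combined with sub-inhibitory colistin or PMBN. Further testing used the efflux-deficient E. coli SM1411ΔacrAB, missing the AcrAB multidrug pump.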

Mycobacterium smegmatis = test: Broth microdilution MIC/MBC, Mycobacterium smegmatis; type: cell-based; conditions: Mycolicibacterium smegmatis, ATCC14468, M. Smegmatis ATCC 14468
Pseudomonas aeruginosa [4] = test: MIC with/without PMBN, Pseudomonas aeruginosa; type: cell-based
In short: as §1

B. cereus = test: Broth microdilution MIC/MBC, B. cereus; type: cell-based; conditions: Bacillus cereus; for MBC: read-out: MBC; for MIC: read-out: MIC
Text: The broth microdilution technique was used, followed by subculturing on agar plates that were rhodanine—free.

Klebsiella pneumoniae = test: MIC with/without sub-MIC colistin, Klebsiella pneumoniae; type: cell-based
In short: as §1

[5] = system: methicillin-resistant Staphylococcus aureus (MRSA); test: Broth microdilution MIC/MBC, MRSA; type: cell-based
Acinetobacter baumannii = test: MIC with/without sub-MIC colistin, Acinetobacter baumannii; type: cell-based
In short: as §1

Candida albicans = test: MIC against Candida albicans; type: cell-based; conditions: table prints none, read-out: MIC
K. pneumoniae = test: Broth microdilution MIC, K. pneumoniae; type: cell-based
Bacillus Strains = test: Broth microdilution MIC50/MIC90 and MIC range, Bacillus strains panel; type: cell-based, Bacillus spp.; conditions: 10 Bacillus strains
Text: The broth microdilution technique was used, followed by subculturing on agar plates that were rhodanine—free. […] The MICs reported represent the lowest concentration of each compound necessary to inhibit bacterial growth and the MBCs represent the lowest concentration required to reduce the initial bacterial inoculum by ≥ 99.9%.

Salmonella Typhimurium = test: MIC with/without sub-MIC colistin, Salmonella Typhimurium; type: cell-based
In short: as §1

[6] = system: vancomycin resistant enterococci (VRE) E. faecium; test: Broth microdilution MIC/MBC, VRE E. faecium; type: cell-based; conditions: for MIC: read-out: MIC
[7] = NRS201, B. cereus NRS 201 NR-2488
[8] = E. faecium HM 968 Strain ERV102
[9] = E. faecium NR31914 Strain E0120
[10] = E. faecium Patient #1–1 NR-31903

O=C(O)[C@@H](Cc1ccccc1)N1C(=O)/C(=C/c2cccc(Oc3ccc(F)cc3)c2)SC1=S [Rh 4]
MIC (Escherichia coli O157:H7 [1]; Escherichia coli O157:H7 ATCC 35150, colistin (+) […], read-out: MIC): >64 µM | MIC (Escherichia coli O157:H7 [1]; Escherichia coli O157:H7 ATCC 700728, colistin (+) […], read-out: MIC): >64 µM | MIC (Escherichia coli O157:H7 [1]; Escherichia coli, ATCC35150): > 128 µM | MIC (Escherichia coli O157:H7 [1]; Escherichia coli, ATCC700728): > 128 µM | MIC (Escherichia coli O157:H7 [2]; Escherichia coli O157:H7 ATCC 35150, PMBN (+) 4 μg/mL, read-out: MIC): 8 µM (≈ 3.84 µg/mL) | MIC (Escherichia coli O157:H7 [2]; Escherichia coli O157:H7 ATCC 700728, PMBN (+) 4 μg/mL, read-out: MIC): >64 µM | MIC (Escherichia coli O157:H7 [2]; Escherichia coli, ATCC35150): > 256 µM | MIC (Escherichia coli O157:H7 [2]; Escherichia coli, ATCC700728): > 128 µM | MIC (P. aeruginosa; ATCC9721): > 128 µM | MIC (P. aeruginosa; ATCC15442): > 128 µM | MIC (Pseudomonas aeruginosa [3]; Pseudomonas aeruginosa ATCC 921, colistin (+) […], read-out: MIC): >64 µM | MIC (Pseudomonas aeruginosa [3]; Pseudomonas aeruginosa, ATCC921): > 128 µM | MIC (Escherichia coli Δ acrAB; E.coli 1411): > 64 µM | MIC (Escherichia coli Δ acrAB; E.coli 1411 SM (Δ acrAB, AcrAB efflux pump deficient)): > 64 µM | MBC (Mycobacterium smegmatis; read-out: MBC): > 64 µM | MIC (Mycobacterium smegmatis; read-out: MIC): 32 µM (≈ 15.3 µg/mL) | MIC (Pseudomonas aeruginosa [4]; Pseudomonas aeruginosa ATCC 9721, PMBN (+) 4 μg/mL, read-out: MIC): >64 µM | MIC (Pseudomonas aeruginosa [4]; Pseudomonas aeruginosa, ATCC9721): > 128 µM | MBC (B. cereus; B. cereus BAG1O-2 NR-28582): 8 µM (≈ 3.84 µg/mL) | MIC (B. cereus; B. cereus BAG1O-2 NR-28582): 8 µM (≈ 3.84 µg/mL) | MBC (B. cereus; B. cereus BAG1X1-1 NR-28575): 8 µM (≈ 3.84 µg/mL) | MIC (B. cereus; B. cereus BAG1X1-1 NR-28575): 8 µM (≈ 3.84 µg/mL) | MBC (B. cereus; B. cereus BAG1X2-1 NR-28578): 8 µM (≈ 3.84 µg/mL) | MIC (B. cereus; B. cereus BAG1X2-1 NR-28578): 8 µM (≈ 3.84 µg/mL) | MBC (B. cereus; B. cereus G9241 NR-9564): 16 µM (≈ 7.67 µg/mL) | MIC (B. cereus; B. cereus G9241 NR-9564): 16 µM (≈ 7.67 µg/mL) | MBC (B. cereus; B. cereus VD014 NR-22141): 8 µM (≈ 3.84 µg/mL) | MIC (B. cereus; B. cereus VD014 NR-22141): 8 µM (≈ 3.84 µg/mL) | MBC (B. cereus; B. cereus VD115 NR-22148): 8 µM (≈ 3.84 µg/mL) | MIC (B. cereus; B. cereus VD115 NR-22148): 8 µM (≈ 3.84 µg/mL) | MBC (B. cereus; B. cereus VD148 NR-22150): 8 µM (≈ 3.84 µg/mL) | MIC (B. cereus; B. cereus VD148 NR-22150): 8 µM (≈ 3.84 µg/mL) | MBC (B. cereus; [7]): > 64 µM | MIC (B. cereus; [7]): 8 µM (≈ 3.84 µg/mL) | MIC (Klebsiella pneumoniae; Klebsiella pneumoniae ATCC BAA 2146, colistin (+) […]): >64 µM | MIC (Klebsiella pneumoniae; Klebsiella pneumoniae, BAA2146): > 128 µM | MIC50 ([5]; 11 MRSA strains): 16 µM (≈ 7.67 µg/mL) | MIC90 ([5]; 11 MRSA strains): 32 µM (≈ 15.3 µg/mL) | MBC ([5]; MRSA NRS 1): 32 µM (≈ 15.3 µg/mL) | MIC ([5]; MRSA NRS 1): 16 µM (≈ 7.67 µg/mL) | MBC ([5]; MRSA NRS 19): 32 µM (≈ 15.3 µg/mL) | MIC ([5]; MRSA NRS 19): 16 µM (≈ 7.67 µg/mL) | MBC ([5]; MRSA NRS 37): 32 µM (≈ 15.3 µg/mL) | MIC ([5]; MRSA NRS 37): 32 µM (≈ 15.3 µg/mL) | MBC ([5]; MRSA NRS 107): 32 µM (≈ 15.3 µg/mL) | MIC ([5]; MRSA NRS 107): 16 µM (≈ 7.67 µg/mL) | MBC ([5]; MRSA NRS 119): 32 µM (≈ 15.3 µg/mL) | MIC ([5]; MRSA NRS 119): 16 µM (≈ 7.67 µg/mL) | MBC ([5]; MRSA NRS 382): 16 µM (≈ 7.67 µg/mL) | MIC ([5]; MRSA NRS 382): 16 µM (≈ 7.67 µg/mL) | MBC ([5]; MRSA NRS 383): 32 µM (≈ 15.3 µg/mL) | MIC ([5]; MRSA NRS 383): 32 µM (≈ 15.3 µg/mL) | MBC ([5]; MRSA NRS 384): 64 µM (≈ 30.7 µg/mL) | MIC ([5]; MRSA NRS 384): 16 µM (≈ 7.67 µg/mL) | MBC ([5]; MRSA NRS 385): 32 µM (≈ 15.3 µg/mL) | MIC ([5]; MRSA NRS 385): 16 µM (≈ 7.67 µg/mL) | MBC ([5]; MRSA NRS 386): > 64 µM | MIC ([5]; MRSA NRS 386): 16 µM (≈ 7.67 µg/mL) | MBC ([5]; MRSA NRS 387): 64 µM (≈ 30.7 µg/mL) | MIC ([5]; MRSA NRS 387): 16 µM (≈ 7.67 µg/mL) | MIC (Acinetobacter baumannii; Acinetobacter baumannii ATCC BAA747, colistin (+) […], read-out: MIC): >64 µM | MIC (Acinetobacter baumannii; Acinetobacter baumannii ATCC BAA19606, colistin (+) […], read-out: MIC): >64 µM | MIC (Acinetobacter baumannii; Acinetobacter baumannii, ATCCBAA747): > 128 µM | MIC (Acinetobacter baumannii; Acinetobacter baumannii, ATCCBAA19606): > 128 µM | MIC (Candida albicans; ATCC10231, C. albicans ATCC 10231, unit from abstract): > 64 µM | MIC (Candida albicans; C. albicans NR 29434, unit from abstract): > 64 µM | MIC (Candida albicans; C. albicans NR 29435, unit from abstract): > 64 µM | MIC (Candida albicans; C. albicans NR29437, unit from abstract): > 64 µM | MIC (Candida albicans; C. albicans NR29438, unit from abstract): > 64 µM | MIC (Candida albicans; C. albicans NR 29446, unit from abstract): 64 µM (≈ 30.7 µg/mL) | MIC (Candida albicans; C. albicans NR 29448, unit from abstract): > 64 µM | MIC (Candida albicans; C. albicans NR 29449, unit from abstract): > 64 µM | MIC (Candida albicans; C. albicans NR 29453, unit from abstract): > 64 µM | MIC (Candida albicans; C. albicans NR 294436, unit from abstract): > 64 µM | MIC (K. pneumoniae; K. pneumoniae NR-15417): >128 µM | MIC (K. pneumoniae; Klebsiella pneumoniae): > 128 µM | MIC50 (Bacillus Strains): 8 µM (≈ 3.84 µg/mL) | MIC90 (Bacillus Strains): 16 µM (≈ 7.67 µg/mL) | MIC (Salmonella Typhimurium; Salmonella Typhimurium ATCC 700720, colistin (+) […], read-out: MIC): >64 µM | MIC (Salmonella Typhimurium; Salmonella enterica, ATCC 700720 / TYPHIMURIUM): > 128 µM | MBC ([6]; E. faecium E417 HM-965): > 64 µM | MIC ([6]; E. faecium E417 HM-965): 16 µM (≈ 7.67 µg/mL) | MBC ([6]; E. faecium E1071 NR-28978): 64 µM (≈ 30.7 µg/mL) | MIC ([6]; E. faecium E1071 NR-28978): 32 µM (≈ 15.3 µg/mL) | MBC [6, 8]: 64 µM (≈ 30.7 µg/mL) | MIC [6, 8]: 32 µM (≈ 15.3 µg/mL) | MBC [6, 9]: 64 µM (≈ 30.7 µg/mL) | MIC [6, 9]: 32 µM (≈ 15.3 µg/mL) | MBC [6, 10]: 64 µM (≈ 30.7 µg/mL) | MIC [6, 10]: 16 µM (≈ 7.67 µg/mL)
